Experimental data reported in ChEMBL document CHEMBL1201862, “PubChem BioAssay data set” (2004).
Calls of active or inactive are those of the source.

Experiments:
[1] = viability loss in HeLa cells – cytotoxicity control for MgcRacGAP inhibitor project, dose response (AID 624300); format: functional
[2] = biological target: Tyrosine-protein phosphatase non-receptor type 5 (Homo sapiens, UniProt P54829); assay: PTPN5 enzyme inhibition – biochemical, fluorescence intensity, uHTS hits, confirmation (AID 602372); format: functional; details: read-out: IC50_Mean
[3] = biological target: Dual specificity protein phosphatase 3 (Homo sapiens, UniProt P51452); assay: VHR phosphatase inhibition, dose response, selectivity assay for STEP inhibitor project, biochemical (AID 602374); format: functional; details: read-out: IC50_Mean
[4] = biological target: Tyrosine-protein phosphatase non-receptor type 11 (Homo sapiens, UniProt Q06124); assay: PTPN11 enzyme inhibitors – biochemical, selectivity assay for STEP inhibitor project, dose response (AID 602367); format: functional; details: read-out: IC50_Mean
Interleukin-8 [5] = biological target: T1, Interleukin-8 (Homo sapiens, UniProt P10145); assay: Dose Response confirmation of uHTS small molecule hits for cystic fibrosis induced NFkb Inhibitors in a PAF-induced IL8 counterscreen.; format: functional; details: read-out: IC50_Mean
T1 sequence (P10145 whole entry): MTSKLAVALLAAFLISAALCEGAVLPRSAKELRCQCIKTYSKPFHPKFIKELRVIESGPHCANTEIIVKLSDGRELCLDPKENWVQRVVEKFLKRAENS

Interleukin-8 [6] = biological target: T1, Interleukin-8; assay: Dose Response confirmation of uHTS small molecule hits for cystic fibrosis induced NFkb Inhibitors in a TNFa-induced IL8 counterscreen.; format: functional; details: read-out: IC50_Mean
[7] = biological target: Ras and Rab interactor 1/Tyrosine-protein kinase ABL1 (Homo sapiens, UniProt P00519+Q13671); format: functional;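 note: biochemical TR-FRET dose-response test measuring inhibition of binding between Rin1 and Abl proteins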
Melanocortin receptor 4 = Melanocortin receptor 4 (Homo sapiens, UniProt P32245); assay: inhibitors of MC4R cAMP signaling – cell-based, TR-FRET, biased antagonists, dose response (AID 602298); format: functional;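 note: antagonist potency against agonist-stimulated cAMP production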
[8] = blockade of melanocortin 4 receptor signaling – cell-based, plate reader, cherry pick, counter-screen for LGR2 antagonist project, dose response (AID 743444); format: functional;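 note: transfected HEK 293 cells stimulated with alpha-MSH peptide; potency of inhibitors of the alpha-MSH evoked signal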
[9] = viability loss in HEK293 cells – cell-based, plate reader, cherry-picked samples, cytotoxicity control, dose response (AID 743446); format: functional
[10] = cAMP pathway inhibition in counterscreen cell line – TR-FRET cAMP detection, counter-screen for MC4R biased antagonist project, dose response (AID 602305); format: functional, cell-based;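 note: U2OS cells stimulated with forskolin near its EC80 as the cAMP inducer; potency is for inhibition of forskolin-stimulated cAMP signaling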
[11] = toxicity toward HepG2 liver cells – cell-based, plate reader, cherry-pick, antagonist series, cytotoxicity control, dose response (AID 743416); format: functional
[12] = blockers of bursicon-stimulated LGR2 cAMP reporter – cell-based, HEK293, CRE-luciferase reporter, cherry pick, set 2, dose response (AID 743343); format: functional;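 note: transfected cells were stimulated with diluted bursicon conditioned medium after compound addition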
[13] = A549 cell cytotoxicity, dose response, cytotoxicity control, plate reader, cherry-pick, antagonist series (AID 743412); format: functional, cell-based
[14] = biological target: T2, Calpain-2 catalytic subunit (Sus scrofa, UniProt P43367); assay: m-calpain protease blockers, concentration series – biochemical, fluorogenic peptide substrate, dose response (AID 1420); format: functional
T2 sequence (P43367 whole entry): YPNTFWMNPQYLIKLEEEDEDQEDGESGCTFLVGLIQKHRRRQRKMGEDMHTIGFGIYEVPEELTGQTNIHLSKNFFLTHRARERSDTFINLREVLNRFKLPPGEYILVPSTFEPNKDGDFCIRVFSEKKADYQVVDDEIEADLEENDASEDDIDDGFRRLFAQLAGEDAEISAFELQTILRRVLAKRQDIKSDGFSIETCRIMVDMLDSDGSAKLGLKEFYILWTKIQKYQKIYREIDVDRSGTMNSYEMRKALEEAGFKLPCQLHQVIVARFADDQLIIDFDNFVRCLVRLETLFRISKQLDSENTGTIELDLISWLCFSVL

[15] = biological target: Mitochondrial peptide methionine sulfoxide reductase (Bos taurus, UniProt P54149); format: functional;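 note: absorbance read-out, biochemical high-throughput dose-response screen for MsrA inhibitors, confirmatory; recombinant bovine MsrA coupled to E. coli TrxB with NADPH and selenocystamine; potency is for inhibitors of MsrA activity on DMSO substrate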
[16] = biological target: T3, Heat shock factor protein 1 (Mus musculus, UniProt P38532); assay: enhancement of HSF1-driven luciferase signal – cell-based, NIH3T3, luminescence, dose retest, confirmation (AID 435004); format: functional;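 note: stress induced by proteasome inhibitor MG132 added 30 min after compound; luciferase reporter driven by HSF1 response element in NIH3T3 cells; actives raise luminescence as potentiators of the MG132 stress response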
T3 sequence (P38532 whole entry): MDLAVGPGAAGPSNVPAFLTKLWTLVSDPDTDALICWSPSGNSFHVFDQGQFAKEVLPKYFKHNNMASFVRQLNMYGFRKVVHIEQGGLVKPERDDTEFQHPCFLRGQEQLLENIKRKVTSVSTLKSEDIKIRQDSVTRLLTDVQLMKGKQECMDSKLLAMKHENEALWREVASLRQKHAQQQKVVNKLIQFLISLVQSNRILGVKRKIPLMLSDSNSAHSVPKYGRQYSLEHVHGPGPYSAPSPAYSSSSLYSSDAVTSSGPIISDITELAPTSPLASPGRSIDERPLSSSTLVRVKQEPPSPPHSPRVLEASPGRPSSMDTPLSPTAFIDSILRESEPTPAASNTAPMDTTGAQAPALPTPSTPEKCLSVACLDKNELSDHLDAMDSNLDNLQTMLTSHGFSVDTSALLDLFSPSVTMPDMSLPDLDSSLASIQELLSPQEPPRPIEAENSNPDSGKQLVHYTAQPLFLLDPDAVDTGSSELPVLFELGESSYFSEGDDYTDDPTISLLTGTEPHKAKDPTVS

HEK293 [17] = assay: optical interference in Abeta FP readout, dose response, artefact control for IDE activator project, biochemical, fluorescence polarization (AID 588442); format: functional, cell-based; details: Homo sapiens
Cytochrome P450 3A4 = Cytochrome P450 3A4 (Homo sapiens, UniProt P08684); details: Potency;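 note: confirmatory qHTS run detecting inhibitors and substrates of CYP3A4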
[18] = biological target: T4, Endoribonuclease toxin MazF (Escherichia coli K-12, UniProt P0AE70); assay: activation of MazEF endoribonuclease cleavage – biochemical, fluorescence, single-stranded RNA substrate, uHTS hits, dose response (AID 588481); format: functional
T4 sequence (P0AE70 whole entry): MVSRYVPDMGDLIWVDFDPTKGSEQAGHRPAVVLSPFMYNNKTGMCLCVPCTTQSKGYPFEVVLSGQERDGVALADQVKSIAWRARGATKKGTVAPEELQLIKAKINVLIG

[19] = biological target: T4, Endoribonuclease toxin MazF; assay: substrate-only fluorescence increase artefacts – biochemical, single-stranded RNase substrate, counter-screen for MazEF activator project, dose response (AID 588502); format: functional
HEK293 [20] = assay: membrane integrity loss in HEK cells – cell-based, fluorescence, cytotoxicity control for IDE activator project, dose response (AID 588440); format: functional; details: Homo sapiens;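 note: cytotoxicity by LDH release measuring loss of membrane integrity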
Insulin-degrading enzyme [21] = biological target: T5, Insulin-degrading enzyme (Homo sapiens, UniProt P14735); assay: cellular IDE activation of Abeta substrate cleavage – fluorescence polarization, HEK cells, dose response (AID 588439); format: functional, cell-based
T5 sequence (P14735 whole entry): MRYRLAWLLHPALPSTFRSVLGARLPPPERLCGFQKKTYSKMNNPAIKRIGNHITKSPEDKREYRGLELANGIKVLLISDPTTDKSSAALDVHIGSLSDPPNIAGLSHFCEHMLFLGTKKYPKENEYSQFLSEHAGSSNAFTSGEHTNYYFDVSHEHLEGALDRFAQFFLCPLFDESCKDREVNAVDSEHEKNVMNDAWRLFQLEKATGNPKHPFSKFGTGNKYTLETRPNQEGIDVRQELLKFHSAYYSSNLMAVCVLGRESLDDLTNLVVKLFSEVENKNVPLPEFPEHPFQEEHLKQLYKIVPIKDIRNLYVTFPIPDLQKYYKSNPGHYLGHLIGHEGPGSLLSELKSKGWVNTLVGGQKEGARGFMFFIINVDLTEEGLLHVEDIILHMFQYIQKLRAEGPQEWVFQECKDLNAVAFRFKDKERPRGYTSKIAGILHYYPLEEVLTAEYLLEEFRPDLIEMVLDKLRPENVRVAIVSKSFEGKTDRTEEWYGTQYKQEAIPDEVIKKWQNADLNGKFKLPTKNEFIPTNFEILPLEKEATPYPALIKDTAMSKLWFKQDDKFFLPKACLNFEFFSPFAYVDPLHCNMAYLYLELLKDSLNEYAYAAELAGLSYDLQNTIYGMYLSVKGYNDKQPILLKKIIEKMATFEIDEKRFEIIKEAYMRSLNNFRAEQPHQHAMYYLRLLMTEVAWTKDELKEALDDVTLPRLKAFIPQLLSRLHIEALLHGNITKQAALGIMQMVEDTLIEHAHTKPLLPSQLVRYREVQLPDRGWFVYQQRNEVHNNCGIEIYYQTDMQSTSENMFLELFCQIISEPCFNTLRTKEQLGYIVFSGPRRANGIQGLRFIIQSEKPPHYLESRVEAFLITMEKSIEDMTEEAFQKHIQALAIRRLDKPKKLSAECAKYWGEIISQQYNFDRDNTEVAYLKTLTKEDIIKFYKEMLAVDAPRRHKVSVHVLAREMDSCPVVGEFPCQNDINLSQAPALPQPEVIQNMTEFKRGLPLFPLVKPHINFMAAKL

Insulin-degrading enzyme [22] = biological target: T5, Insulin-degrading enzyme; assay: recombinant IDE activation, cell-free – biochemical, fluorescence polarization, counter-screen for IDE activator project, dose response (AID 588681)
[23] = biological target: T6, Corticotropin-releasing factor receptor 2/Corticotropin-releasing factor-binding protein (Homo sapiens, UniProt P24387+Q13324); assay: activators of CRF receptor 2 with binding protein – uHTS hits, confirmation (AID 602473); format: functional; details: read-out: EC50_Mean
T6 sequence (Q13324 whole entry): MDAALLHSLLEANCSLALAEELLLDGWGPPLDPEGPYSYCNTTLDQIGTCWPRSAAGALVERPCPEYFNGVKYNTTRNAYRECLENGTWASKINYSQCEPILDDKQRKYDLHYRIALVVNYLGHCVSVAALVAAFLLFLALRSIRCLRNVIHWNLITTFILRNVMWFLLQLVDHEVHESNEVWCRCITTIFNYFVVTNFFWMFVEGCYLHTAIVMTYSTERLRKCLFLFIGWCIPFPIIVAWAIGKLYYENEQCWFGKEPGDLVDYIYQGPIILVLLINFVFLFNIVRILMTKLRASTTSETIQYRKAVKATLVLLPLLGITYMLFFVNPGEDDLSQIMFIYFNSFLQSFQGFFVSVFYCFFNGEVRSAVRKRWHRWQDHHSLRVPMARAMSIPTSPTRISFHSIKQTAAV
T6 sequence (P24387 whole entry): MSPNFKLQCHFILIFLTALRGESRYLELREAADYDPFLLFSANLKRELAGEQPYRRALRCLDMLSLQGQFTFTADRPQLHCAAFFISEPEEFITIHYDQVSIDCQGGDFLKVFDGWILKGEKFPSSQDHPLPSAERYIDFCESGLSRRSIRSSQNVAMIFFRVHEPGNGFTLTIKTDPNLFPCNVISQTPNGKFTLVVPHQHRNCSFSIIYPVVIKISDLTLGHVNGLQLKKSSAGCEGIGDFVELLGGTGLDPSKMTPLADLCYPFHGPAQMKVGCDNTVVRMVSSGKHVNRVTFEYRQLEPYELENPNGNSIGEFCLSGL

[24] = biological target: T6, Corticotropin-releasing factor receptor 2/Corticotropin-releasing factor-binding protein; assay: Dose Response confirmation of uHTS hits for small molecule antagonists of the CRF-binding protein and CRF-R2 receptor complex.; format: functional; details: read-out: IC50_Mean
[25] = blockers of CRF-binding protein–CRF-R2 complex – cell-based, uHTS hits, 384-well, dose response (AID 651639); format: functional, Homo sapiens; details: read-out: IC50_Mean

Mitochondrial peptide methionine sulfoxide reductase, sequence (P54149 whole entry): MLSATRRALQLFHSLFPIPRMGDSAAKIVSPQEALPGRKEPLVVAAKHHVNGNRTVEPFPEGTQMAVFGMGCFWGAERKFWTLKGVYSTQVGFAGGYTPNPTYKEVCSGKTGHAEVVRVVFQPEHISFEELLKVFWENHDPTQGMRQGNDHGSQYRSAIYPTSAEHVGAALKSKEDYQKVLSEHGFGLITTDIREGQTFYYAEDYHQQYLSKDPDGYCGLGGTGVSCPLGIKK
Cytochrome P450 3A4, sequence (P08684 whole entry): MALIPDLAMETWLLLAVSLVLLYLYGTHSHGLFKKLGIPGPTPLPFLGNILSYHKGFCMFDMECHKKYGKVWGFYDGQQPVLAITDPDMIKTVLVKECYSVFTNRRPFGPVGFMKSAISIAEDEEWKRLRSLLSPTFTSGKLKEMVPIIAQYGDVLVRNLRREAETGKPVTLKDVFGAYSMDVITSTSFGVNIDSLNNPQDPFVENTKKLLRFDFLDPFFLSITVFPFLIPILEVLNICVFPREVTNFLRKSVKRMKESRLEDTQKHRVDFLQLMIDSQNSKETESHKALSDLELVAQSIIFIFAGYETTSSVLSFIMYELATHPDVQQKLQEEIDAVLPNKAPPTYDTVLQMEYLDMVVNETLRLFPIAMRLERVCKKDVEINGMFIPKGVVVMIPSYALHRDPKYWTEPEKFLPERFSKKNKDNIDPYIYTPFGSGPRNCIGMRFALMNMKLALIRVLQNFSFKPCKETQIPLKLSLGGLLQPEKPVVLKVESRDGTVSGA
Ras and Rab interactor 1/Tyrosine-protein kinase ABL1, sequence (P00519 whole entry): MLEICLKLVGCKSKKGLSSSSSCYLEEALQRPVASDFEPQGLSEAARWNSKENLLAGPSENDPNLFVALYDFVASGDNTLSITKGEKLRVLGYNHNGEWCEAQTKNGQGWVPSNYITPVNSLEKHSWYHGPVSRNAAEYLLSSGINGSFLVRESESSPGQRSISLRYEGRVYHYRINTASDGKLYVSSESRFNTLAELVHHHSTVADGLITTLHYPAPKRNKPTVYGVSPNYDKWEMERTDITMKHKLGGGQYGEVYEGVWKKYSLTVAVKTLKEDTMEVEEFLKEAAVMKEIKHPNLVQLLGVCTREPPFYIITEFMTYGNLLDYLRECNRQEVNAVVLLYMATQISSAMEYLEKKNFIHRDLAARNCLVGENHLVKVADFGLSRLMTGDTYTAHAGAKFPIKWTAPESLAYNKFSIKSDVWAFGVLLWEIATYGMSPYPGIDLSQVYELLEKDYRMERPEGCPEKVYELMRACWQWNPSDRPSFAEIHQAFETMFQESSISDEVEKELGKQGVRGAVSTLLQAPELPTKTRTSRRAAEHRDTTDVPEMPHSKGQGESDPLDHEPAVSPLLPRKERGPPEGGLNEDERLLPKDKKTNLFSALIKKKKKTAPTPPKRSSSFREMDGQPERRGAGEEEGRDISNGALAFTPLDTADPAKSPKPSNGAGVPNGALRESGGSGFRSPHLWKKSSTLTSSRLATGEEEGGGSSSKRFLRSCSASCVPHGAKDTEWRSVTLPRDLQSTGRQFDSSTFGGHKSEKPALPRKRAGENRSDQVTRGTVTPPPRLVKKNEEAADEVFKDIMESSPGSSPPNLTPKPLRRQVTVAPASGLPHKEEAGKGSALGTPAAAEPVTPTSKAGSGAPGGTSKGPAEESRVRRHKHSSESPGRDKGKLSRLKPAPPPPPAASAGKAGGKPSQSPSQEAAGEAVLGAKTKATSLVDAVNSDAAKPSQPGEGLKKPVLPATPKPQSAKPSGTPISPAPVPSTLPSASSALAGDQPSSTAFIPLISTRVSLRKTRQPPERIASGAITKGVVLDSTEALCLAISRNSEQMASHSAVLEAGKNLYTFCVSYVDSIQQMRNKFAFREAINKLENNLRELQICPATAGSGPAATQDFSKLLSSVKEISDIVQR
Ras and Rab interactor 1/Tyrosine-protein kinase ABL1, sequence (Q13671 whole entry): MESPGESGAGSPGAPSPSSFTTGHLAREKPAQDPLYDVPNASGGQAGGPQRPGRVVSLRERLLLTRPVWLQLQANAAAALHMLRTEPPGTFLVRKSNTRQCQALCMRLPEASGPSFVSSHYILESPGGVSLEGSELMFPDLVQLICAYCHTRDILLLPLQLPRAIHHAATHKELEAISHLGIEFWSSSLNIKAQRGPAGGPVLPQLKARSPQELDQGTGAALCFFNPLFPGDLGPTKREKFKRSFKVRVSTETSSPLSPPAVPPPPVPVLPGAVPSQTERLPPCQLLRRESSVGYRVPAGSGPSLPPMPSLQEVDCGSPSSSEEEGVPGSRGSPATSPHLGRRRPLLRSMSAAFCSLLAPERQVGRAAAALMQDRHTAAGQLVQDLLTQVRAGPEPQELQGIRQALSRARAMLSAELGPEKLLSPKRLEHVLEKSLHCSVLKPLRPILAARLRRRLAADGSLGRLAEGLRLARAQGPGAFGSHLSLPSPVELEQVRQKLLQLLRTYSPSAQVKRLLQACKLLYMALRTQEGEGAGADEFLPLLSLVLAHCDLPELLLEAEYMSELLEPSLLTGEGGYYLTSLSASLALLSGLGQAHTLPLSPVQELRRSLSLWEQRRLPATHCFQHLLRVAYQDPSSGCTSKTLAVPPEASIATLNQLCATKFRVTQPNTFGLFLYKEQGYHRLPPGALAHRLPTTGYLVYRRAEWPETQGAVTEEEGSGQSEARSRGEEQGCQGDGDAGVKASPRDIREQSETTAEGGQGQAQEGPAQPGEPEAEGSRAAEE
Tyrosine-protein phosphatase non-receptor type 5, sequence (P54829 whole entry): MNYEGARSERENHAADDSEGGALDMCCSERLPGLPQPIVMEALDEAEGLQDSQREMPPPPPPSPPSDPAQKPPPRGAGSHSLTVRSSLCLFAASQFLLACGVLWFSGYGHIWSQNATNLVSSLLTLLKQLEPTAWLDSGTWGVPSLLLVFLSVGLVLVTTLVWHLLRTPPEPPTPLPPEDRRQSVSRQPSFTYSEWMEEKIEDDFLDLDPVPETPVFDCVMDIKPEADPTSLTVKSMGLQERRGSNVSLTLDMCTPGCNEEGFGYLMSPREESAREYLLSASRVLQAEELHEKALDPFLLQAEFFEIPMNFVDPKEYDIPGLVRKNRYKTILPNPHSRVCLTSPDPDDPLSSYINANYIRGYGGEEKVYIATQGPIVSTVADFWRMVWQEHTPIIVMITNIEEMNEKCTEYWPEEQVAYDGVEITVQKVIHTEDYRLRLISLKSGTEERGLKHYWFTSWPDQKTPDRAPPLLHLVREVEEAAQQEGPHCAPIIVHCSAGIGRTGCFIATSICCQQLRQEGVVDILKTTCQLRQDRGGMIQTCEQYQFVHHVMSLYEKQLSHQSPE
Tyrosine-protein phosphatase non-receptor type 11, sequence (Q06124 whole entry): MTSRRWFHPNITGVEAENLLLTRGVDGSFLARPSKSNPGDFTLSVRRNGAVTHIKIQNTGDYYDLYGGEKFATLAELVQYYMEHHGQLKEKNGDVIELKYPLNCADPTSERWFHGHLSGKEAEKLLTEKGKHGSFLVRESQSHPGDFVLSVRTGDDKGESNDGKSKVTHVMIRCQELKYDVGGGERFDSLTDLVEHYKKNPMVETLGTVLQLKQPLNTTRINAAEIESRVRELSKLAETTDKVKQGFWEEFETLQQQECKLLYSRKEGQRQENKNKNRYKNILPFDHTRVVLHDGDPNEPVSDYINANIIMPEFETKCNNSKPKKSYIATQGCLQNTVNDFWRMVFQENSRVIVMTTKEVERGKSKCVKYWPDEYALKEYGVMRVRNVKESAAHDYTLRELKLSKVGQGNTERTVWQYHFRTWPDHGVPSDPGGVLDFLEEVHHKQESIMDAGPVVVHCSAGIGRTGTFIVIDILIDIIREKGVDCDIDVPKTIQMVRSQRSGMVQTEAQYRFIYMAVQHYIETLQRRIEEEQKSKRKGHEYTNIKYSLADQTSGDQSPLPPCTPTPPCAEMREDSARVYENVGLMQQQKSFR
Dual specificity protein phosphatase 3, sequence (P51452 whole entry): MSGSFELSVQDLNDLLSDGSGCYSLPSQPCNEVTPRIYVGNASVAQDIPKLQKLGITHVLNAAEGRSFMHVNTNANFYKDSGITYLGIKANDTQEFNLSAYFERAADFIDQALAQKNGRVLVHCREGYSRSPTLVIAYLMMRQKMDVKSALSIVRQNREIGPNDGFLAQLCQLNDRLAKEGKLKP
Melanocortin receptor 4, sequence (P32245 whole entry): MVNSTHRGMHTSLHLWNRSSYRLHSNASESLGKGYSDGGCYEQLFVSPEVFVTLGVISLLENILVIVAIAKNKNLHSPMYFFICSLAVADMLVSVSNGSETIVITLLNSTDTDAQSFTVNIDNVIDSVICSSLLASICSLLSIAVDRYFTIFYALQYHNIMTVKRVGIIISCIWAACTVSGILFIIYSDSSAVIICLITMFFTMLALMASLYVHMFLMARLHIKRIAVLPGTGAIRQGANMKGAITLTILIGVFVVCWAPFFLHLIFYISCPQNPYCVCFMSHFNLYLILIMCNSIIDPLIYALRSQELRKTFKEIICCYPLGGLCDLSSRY

With COc1cc2nc(S)nc(NCCc3ccc(S(N)(=O)=O)cc3)c2cc1OC the CC50 [1] was 100 µM (active).
For Cc1ccc(-c2nc3ncccc3o2)cc1NC(=O)CC(C)C, the IC50 [2] was > 80 µM (inactive), the IC50 [3] was > 80 µM (inactive) and the IC50 [4] was > 80 µM (inactive).
In the case of CCn1c(Oc2ccccc2F)nc2c1c(=O)n(C)c(=O)n2C, the IC50 (Interleukin-8 [5]) was 21 µM (inactive) and the IC50 (Interleukin-8 [6]) was 4.08 µM (active).
For Oc1cc(SCc2ccccc2)ncn1, the IC50 [7] was 0.514 µM (active).
With Cc1ccccc1CN1Cc2cnnn2-c2ccccc2C1C#N (configuration not stated) the IC50 (Melanocortin receptor 4) was 7.25 µM (active), the AC50 [8] was 8.97 µM (active) and the AC50 [9] was 15.8 µM (active). The IC50 [10] was > 64.5 µM (inactive), the AC50 [11] was 17 µM (active) and the AC50 [12] was 13.8 µM (active). The AC50 [13] was 20.9 µM (active).
For CCN(/N=C/C=C/c1ccccc1)c1cc(=O)n(C)c(=O)[nH]1, the IC50 [14] was 13.1 µM (not active), the IC50 [15] was 155 µM (inactive) and the EC50 [16] was > 260 µM (inactive).
With Oc1ccc2c(c1)OCC1(O)Cc3cc(O)c(O)cc3C21 (configuration not stated) the EC50 (HEK293 [17]) was 53.6 µM (inactive), the AC50 (Cytochrome P450 3A4) was 31.6 µM (inconclusive) and the EC50 [18] was > 99 µM (inactive). The EC50 [19] was 3.96 µM (active), the IC50 (HEK293 [20]) was 85.1 µM (inactive) and the EC50 (Insulin-degrading enzyme [21]) was > 54.7 µM (inactive). For the same molecule, the EC50 (Insulin-degrading enzyme [22]) was > 54.7 µM (inactive).
For Cc1ccc(CSCC(=O)Nc2cc(S(=O)(=O)N3CCOCC3)ccc2OC(C)C)cc1, the EC50 [23] was > 53 µM (inactive), the IC50 [24] was < 0.368 µM (active) and the IC50 [25] was > 20 µM (inactive).
